Measurements published in patent US10882859B2, “Kinase inhibitors” (Topivert Pharma Limited, priority 2015, dated 2021).
Read-outs that look alike come from different tables or passages of the source.

Legend:
[1] = system: CD3/IL2 stimulated PBMC cells; assay: IFNγ release from CD3/IL2 stimulated PBMC cells; assay type: cell-based; conditions: Homo sapiens, CD3/IL2 stimulation, 48 h, ELISA
Experimental: PBMCs from healthy subjects are separated from whole blood using a density gradient (Lymphoprep, Axis-Shield Healthcare). Cells are added to a 96 well plate, and compound at the desired concentration added 2 hours prior to stimulation with a mixture of monoclonal antibody to CD3 (1 μg/ml, eBioscience) and human recombinant IL2 (10 ng/ml, Peprotech). After 48 hours incubation under normal tissue culture conditions, supernatants are collected and IFNγ release determined by Sandwich ELISA (Duo-set, R&D System). The IC50 is determined from the dose response curve.

Jurkat cells = assay: Cell cytotoxicity assay (propidium iodide, flow cytometry); assay type: cell-based, human; conditions: 24 h
Experimental: 1×10^5 Jurkat cells (immortalised human T lymphocytes) are added to the appropriate number of wells of a 96 well plate in 100 μL of media (RPMI supplemented with 10% foetal bovine serum). 1 μL of DMSO control (final concentration 1.0% v/v) or test compound (final concentration 20, 5 or 1 μg/mL) is added to the wells and incubated at 37° C., 5% CO2. After 24 hours, the plate is centrifuged at 1200 rpm for 3 minutes and the supernatant discarded. Cells are then resuspended in 150 μL (final concentration 7.5 μg/mL) of propidium iodide (PI) in PBS and incubated at 37° C., 5% CO2 for 15 minutes. After 15 minutes, cells are analysed by flow cytometry (BD accuri) using the FL3 window. The % viability is calculated as the % of cells that are PI negative in the test wells normalised to the DMSO control.

[2] = Systemic pharmacokinetics and total colon tissue distribution after single oral administration; assay type: in vivo, male C57BL/6 mice; conditions: mice, oral 10 mg/kg; for concentration at 0.5 h / concentration at 1 h / concentration at 2 h / concentration at 4 h / concentration at 6 h / concentration at 8 h / concentration at 12 h / concentration at 24 h: male, C57BL/6, mouse
Experimental: Studies were conducted by Sai Life Sciences (Hinjewadi, Pune, India) to investigate the systemic pharmacokinetics and total colon tissue distribution of compounds of the invention following a single oral administration in male C57BL/6 mice.
A group of twenty four male mice were administered with a solution of test compound formulated at a dose of 10 mg/10 mL/kg in aqueous hydroxypropyl-β-cyclodextrin (20% w/v in water). Blood samples ([…]) were collected from retro-orbital plexus of each mouse under light isoflurane anaesthesia such that the samples were obtained at 0.5, 1, 2, 4, 6, 8, 12 and 24 hr. The blood samples were collected from a set of three mice at each time point in a labeled micro centrifuge tube containing K2EDTA as anticoagulant. Plasma samples were separated by centrifugation at 4000 rpm for 10 min and stored below −70° C. until bioanalysis. After collection of blood sample, animals were humanely euthanized by carbon dioxide asphyxiation to collect total colon tissues. The colons were flushed with cold PBS (pH7.4) to remove contents. The total colon tissues were homogenized with cold PBS (pH7.4) of twice the weight of colon tissue and stored below −70° C. Total volume was three times the total colon tissue weights. All samples were processed for analysis by protein precipitation using acetonitrile and analyzed with a fit-for-purpose LC-MS/MS method. Pharmacokinetic parameters were calculated using the non-compartmental analysis tool of Phoenix WinNonlin® (Version 6.3).

[3] = total colon tissue, total colon, read-out: Mean total colon level
[4] = plasma, read-out: Mean plasma concentration

Row | Compound | IC50 [1] | % viability at 1 μg/mL (Jurkat cells) | other results
1 | CCc1cc(O)c(F)cc1-c1ccc2c(-c3nc4c([nH]3)CCN(S(=O)(=O)N(C)C3CCOCC3)C4)n[nH]c2c1 [Example 6(c), 2-(6-(2-ethyl-5-fluoro-4-hydroxyphenyl)-1H-indazol-3-yl)-N-methyl-N-(tetrahydro-2H-pyran-4-yl)-6,7-dihydro-1H-imidazo[4,5-c]pyridine-5(4H)-sulfonamide] | 9.3 nM | 76% | –
2 | CCc1cc(O)c(F)cc1-c1ccc2c(-c3nc4c([nH]3)CCN(C(=O)Nc3ccc(S(C)(=O)=O)cc3)C4)n[nH]c2c1 [Example 4(b), 2-(6-(2-ethyl-5-fluoro-4-hydroxyphenyl)-1H-indazol-3-yl)-N-(4-(methylsulfonyl)phenyl)-6,7-dihydro-1H-imidazo[4,5-c]pyridine-5(4H)-carboxamide] | 54.8 nM | – | –
3 | CCc1cc(O)c(F)cc1-c1ccc2c(-c3nc4c([nH]3)CCN(C(=O)NCC3CCOCC3)C4)n[nH]c2c1 [Example 3, 2-(6-(2-Ethyl-5-fluoro-4-hydroxyphenvl)-1H-indazol-3-yl)-N-((tetrahydro-2H-byran-4-yl)methyl)-6,7-dihydro-1H-imidazo[4,5-c]pyridine-5(4)-carboxamide] | 19.5 nM | 91% | –
4 | CCc1cc(O)c(F)cc1-c1ccc2c(-c3nc4c([nH]3)CCN(C(=O)N3CCCC3)C4)n[nH]c2c1 [Example 2(d), (2-(6-(2-ethyl-5-fluoro-4-hydroxyphenyl)-1H-indazol-3-yl)-1,4,6,7-tetrahydro-5H-imidazo[4,5-c]pyridin-5-yl)(pyrrolidin-1-yl)methanone] | 5.1 nM | – | –
5 | CCc1cc(O)c(F)cc1-c1ccc2c(-c3nc4c([nH]3)CCN(S(=O)(=O)N3CCN(S(C)(=O)=O)CC3)C4)n[nH]c2c1 [Example 5] | 17.8 nM | 87% | –
6 | CCc1cc(O)c(F)cc1-c1ccc2c(-c3nc4c([nH]3)CCN(S(=O)(=O)N3CCC(C(=O)NC)CC3)C4)n[nH]c2c1 [Example 6(b), 1-((2-(6-(2-ethyl-5-fluoro-4-hydroxyphenyl)-1H-indazol-3-yl)-6,7-dihydro-1H-imidazo[4,5-c]pyridin-5(4H)-yl)sulfonyl)-N-methylpiperidine-4-carboxamide] | 100 nM | – | –
7 | CCc1cc(O)c(F)cc1-c1ccc2c(-c3nc4c([nH]3)CCN(S(=O)(=O)N3CCCC3)C4)n[nH]c2c1 [Example 6(d), 5-ethyl-2-fluoro-4-(3-(5-(pyrrolidin-1-ylsulfonyl)-4,5,6,7-tetrahydro-1H-imidazo[4,5-c]pyridin-2-yl)-1H-indazol-6-yl)phenol] | 8.3 nM | 74% | –
8 | CCc1cc(O)c(F)cc1-c1ccc2c(-c3nc4c([nH]3)CCN(C(=O)NCCOCCOC)C4)n[nH]c2c1 [Example 4(a), 2-(6-(2-ethyl-5-fluoro-4-hydroxyphenyl)-1H-indazol-3-yl)-N-(2-(2-methoxyethoxy)ethyl)-6,7-dihydro-1H-imidazo[4,5-c]pyridine-5(4H)-carboxamide] | 14.6 nM | 60% | –
9 | CCc1cc(O)c(F)cc1-c1ccc2c(-c3nc4c([nH]3)CCN(C(=O)c3cnc(N5CCCCC5)cn3)C4)n[nH]c2c1 [Reference Compound, reference compound] | – | 49% | concentration at 0.5 h [2, 3]: 344 ng/g; concentration at 1 h [2, 3]: 102 ng/g; concentration at 2 h [2, 3]: 2370 ng/g; concentration at 4 h [2, 3]: 2970 ng/g; concentration at 6 h [2, 3]: 201 ng/g; concentration at 8 h [2, 3]: 2560 ng/g; concentration at 12 h [2, 3]: 3230 ng/g; concentration at 24 h [2, 3]: 16.6 ng/g; concentration at 0.5 h [2, 4]: 5.2 ng/mL; concentration at 1 h [2, 4]: 12.8 ng/mL; concentration at 2 h [2, 4]: 2.2 ng/mL; concentration at 4 h [2, 4]: 14.4 ng/mL; concentration at 6 h [2, 4]: 114 ng/mL; concentration at 8 h [2, 4]: 95 ng/mL; concentration at 12 h [2, 4]: 0 ng/mL; concentration at 24 h [2, 4]: 0 ng/mL; Colonic exposure AUC0-24 h ([2]; total colon): 43,739 h·ng/g
10 | CCc1cc(O)c(F)cc1-c1ccc2c(-c3nc4c([nH]3)CCN(C(=O)N3CCN(CC)C(=O)C3=O)C4)n[nH]c2c1 [Example 2(c), 1-ethyl-4-(2-(6-(2-ethyl-5-fluoro-4-hydroxyphenyl)-1H-indazol-3-yl)-4,5,6,7-tetrahydro-1H-imidazo[4,5-c]pyridine-5-carbonyl)piperazine-2,3-dione] | 129 nM | 99% | –
11 | CCc1cc(O)c(F)cc1-c1ccc2c(-c3nc4c([nH]3)CN(C(=O)Nc3cccc5nsnc35)CC4)n[nH]c2c1 [Example 4(e), N-(benzo[c][1,2,5]thiadiazol-4-yl)-2-(6-(2-ethyl-5-fluoro-4-hydroxyphenyl)-1H-indazol-3-yl)-6,7-dihydro-1H-imidazo[4,5-c]pyridine-5(4H)-carboxamide] | 30.9 nM | – | –
12 | CCc1cc(O)c(F)cc1-c1ccc2c(-c3nc4c([nH]3)CCN(C(=O)Nc3cn(C)c(=O)n(C)c3=O)C4)n[nH]c2c1 [Example 4(d), N-(1,3-dimethyl-2,4-dioxo-1,2,3,4-tetrahydropyrimidin-5-yl)-2-(6-(2-ethyl-5-fluoro-4-hydroxyphenyl)-1H-indazol-3-yl)-6,7-dihydro-1H-imidazo[4,5-c]pyridine-5(4H)-carboxamide] | 19.2 nM | 60% | –
13 | CCc1cc(O)c(F)cc1-c1ccc2c(-c3nc4c([nH]3)CCN(C(=O)Nc3c(C)noc3C)C4)n[nH]c2c1 [Example 4(c), N-(3,5-dimethylisoxazol-4-yl)-2-(6-(2-ethyl-5-fluoro-4-hydroxyphenyl)-1H-indazol-3-yl)-6,7-dihydro-1H-imidazo[4,5-c]pyridine-5(4H)-carboxamide] | 44.2 nM | – | –
14 | CCc1cc(O)c(F)cc1-c1ccc2c(-c3nc4c([nH]3)CCN(S(=O)(=O)N3CCC(OC)CC3)C4)n[nH]c2c1 [Example 6(i), 5-Ethyl-2-fluoro-4-(3-(5-((4-methoxypiperidin-1-yl)sulfonyl)-4,5,6,7-tetrahydro-1H-imidazo[4,5-c]pyridin-2-yl)-1H-indazol-6-yl)phenol] | 14 nM | 86% | –
15 | CCc1cc(O)c(F)cc1-c1ccc2c(-c3nc4c([nH]3)CCN(S(=O)(=O)N3CCN(C)CC3)C4)n[nH]c2c1 [Example 6(f), 5-ethyl-2-fluoro-4-(3-(5-((4-methylpiperazin-1-yl)sulfonyl)-4,5,6,7-tetrahydro-1H-imidazo[4,5-c]pyridin-2-yl)-1H-indazol-6-yl)phenol] | 9 nM | 29% | –
16 | CCc1cc(O)c(F)cc1-c1ccc2c(-c3nc4c([nH]3)CCN(C(=O)Nc3ccccc3)C4)n[nH]c2c1 [Example 4(f), 2-(6-(2-ethyl-5-fluoro-4-hydroxyphenyl)-1H-indazol-3-yl)-N-phenyl-6,7-dihydro-1H-imidazo[4,5-c]pyridine-5(4H)-carboxamide] | 19.6 nM | – | –
17 | CCc1cc(O)c(F)cc1-c1ccc2c(-c3nc4c([nH]3)CCN(C(=O)N3CCc5ccccc53)C4)n[nH]c2c1 [Example 2(b), (2-(6-(2-ethyl-5-fluoro-4-hydroxyphenyl)-1H-indazol-3-yl)-1,4,6,7-tetrahydro-5H-imidazo[4,5-c]pyridin-5-yl)(indolin-1-yl)methanone] | 31.3 nM | – | –
